Values after ≈ are worked out from the molar mass of the structure shown.
Columns and labels:
[1] = system: mice; experiment: Mouse toxicity, oral, Table I; format: in vivo; conditions: for mouse toxicity (head is a drawing): oral administration
Procedure: (§1) In addition, DCP was tested for mouse toxicity, fish toxicity and biodegradibility.

[2] = system: fish; experiment: Fish toxicity, Table I; format: in vivo
Procedure: as §1

[3] = system: houseflies, susceptible strain (SNAIDM); experiment: Insecticidal activity, housefly, susceptible strain (SNAIDM), Table I; format: in vivo; conditions: for SNAIDM alone (insecticidal activity; head is a drawing): compound alone; for SNAIDM with P.B. (insecticidal activity; head is a drawing): with piperonyl butoxide synergist
From the text: (§2) Metabolic studies involving insects, mice, and fish and a model ecosystem (such as described in U.S. Pat. No. 3,787,505) and insecticidal activity studies generally involving flies and mosquitoes have shown that both the symmetrical and the asymmetrical compounds of the present invention are effective. Thus, the new compounds can be represented by the general formula: [drawing 3] where R1 is H or Cl and R2 is CH3 or Cl, X and X^1 are the same or different and each is selected from the group consisting of C1 to C3 alkyl groups and C1 to C4 alkoxy groups.
as §1

[4] = system: houseflies, DDT resistant strain (RSP); experiment: Insecticidal activity, housefly, resistant strain (RSP), Table I; format: in vivo; conditions: for RSP alone (insecticidal activity; head is a drawing): compound alone; for RSP with P.B. (insecticidal activity; head is a drawing): with piperonyl butoxide synergist
From the text: as §2, §1

[5] = system: Anopheles albimanus adults; experiment: Insect toxicity, Anopheles albimanus adults; format: in vivo
[6] = system: Anopheles albimanus larvae; experiment: Insect toxicity, Anopheles albimanus larvae; format: in vivo
[7] = system: Anopheles albimanus; experiment: Persistence on plywood surfaces of test huts, Anopheles albimanus; format: in vivo; conditions: adult mosquitoes
Procedure: (§3) The persistence of some of the compounds of the present invention was evaluated and compared with that of ethoxychlor. In these tests, the compounds were applied to the plywood surfaces of test huts and the mortalities of adult mosquitoes contained in the huts were measured to determine the number of weeks that 50% mortality continued to occur.

[8] = system: Musca domestica (NAIDM strain); experiment: Insect toxicity, Musca domestica NAIDM strain; format: in vivo
[9] = system: green sunfish (Lepomis cyanellus); experiment: Green sunfish toxicity over a period of time; format: in vivo; conditions: initial concentration 0.1 ppm
From the text: The compounds of Example III, V, XI, XIV and XXI were further tested and compared with ethoxychlor to determine fish toxicities over a period of time. In these tests, green sunfish (Lepomis cyanellus) were subject to an initial concentration dosage of 0.1 ppm and the number of days that 100 percent mortalities occurred was observed.

[10] = system: insects (flies and mosquitoes); experiment: Insecticidal activity, general statement; format: in vivo; conditions: versus ethoxychlor
From the text: as §2

[11] = system: Musca domestica Rsp strain; experiment: Insect toxicity, Musca domestica Rsp strain, DDT-resistant; format: in vivo
[12] = system: mice; experiment: Mouse toxicity, LD50; format: in vivo; conditions: versus ethoxychlor
[13] = Mouse toxicity, LD50; format: in vivo, mice; conditions: in vivo
[14] = system: Culex fatigans larvae; experiment: Insect toxicity, Culex fatigans larvae; format: in vivo; conditions: Culex quinquefasciatus
[15] = system: Culex fatigans adults; experiment: Insect toxicity, Culex fatigans adults; format: in vivo
[16] = system: Culex fatigans; experiment: Persistence on plywood surfaces of test huts, Culex fatigans; format: in vivo; conditions: adult mosquitoes
Procedure: as §3

[17] = system: Phormia regina; experiment: Insect toxicity, Phormia regina; format: in vivo
[18] = Biodegradability studies, general statement
From the text: as §2, §1

## Clc1ccc(C(c2ccc(Cl)cc2)C(Cl)(Cl)Cl)cc1 [DDT, 1,1,1-trichloro-2,2-bis(p-chlorophenyl) ethane, reference compound]
[1]
  mouse toxicity (head is a drawing): 200
[2]
  fish toxicity (head is a drawing): 0.30
[3]
  SNAIDM alone (insecticidal activity; head is a drawing): 14.0
  SNAIDM with P.B. (insecticidal activity; head is a drawing): 5.5
[4]; resistant strain
  RSP alone (insecticidal activity; head is a drawing): 270
  RSP with P.B. (insecticidal activity; head is a drawing): 70

## CCOc1ccc(C(c2ccc(C)cc2)C(C)Cl)cc1 (stereo not drawn) [Example III]
[5]
  Anopheles albimanus adults LC50: 1.1 ug/cm^2
[6]
  LC50: 0.09 µg/mL (≈ 0.312 µM)
[7]
  Anopheles albimanus, P50 (number of weeks that at least 50% mortality occurred): > 6 weeks
[8]; Musca domestica, without PB
  LD50: 39 mg/kg
[8]; with PB
  Musca domestica NAIDM (w/PB) LD50: 10 µg/g
[9]
  Number of days 100% mortality: 0 days
[10]
  insecticidal activity relative to ethoxychlor: at least generally comparable to ethoxychlor
[11]; Musca domestica, without PB
  LD50: 95 mg/kg
[11]; with PB
  Musca domestica Rsp strain w/PB LD50: 14 µg/g
[12]
  safety to mice relative to ethoxychlor: at least five times safer to mice than is ethoxychlor
[13]
  LD50: ≥ 1000 mg/kg
[14]
  LC50: 0.08 µg/mL (≈ 0.277 µM)
[15]
  Culex fatigans adults-LC50: 10 ug/cm^2
[16]
  Culex fatigans, P50 (number of weeks that at least 50% mortality occurred): > 8 weeks
[17]
  LD50: 6.75 mg/kg

## COc1ccc(C(c2ccc(OC)cc2)C(C)Cl)cc1 (stereo not drawn) [DCP, 1,1-bis(p-methoxyphenyl)-2-chloropropane]
[1]
  mouse toxicity (head is a drawing): > 1000
[1]; oral administrations to mice
  mouse toxicity (in words): considerably less toxic than DDT and comparable to methoxychlor
[2]
  fish toxicity (head is a drawing): > 3
  fish toxicity (in words): less toxic than either DDT or methoxychlor
[3]; alone
  toxicity to susceptible strain of houseflies, alone (in words): not as toxic as DDT or methoxychlor
[3]
  SNAIDM alone (insecticidal activity; head is a drawing): 935
  SNAIDM with P.B. (insecticidal activity; head is a drawing): 3.5
[3]; with P.B.
  toxicity to susceptible strain of houseflies with piperonyl butoxide (in words): at least as toxic as methoxychlor and considerably more toxic than DDT
[4]; DDT resistant strain, alone
  toxicity to DDT resistant strain of houseflies, alone (in words): not as toxic as DDT or methoxychlor
[4]; resistant strain
  RSP alone (insecticidal activity; head is a drawing): > 500
  RSP with P.B. (insecticidal activity; head is a drawing): 4.1
[4]; resistant strain, with P.B.
  toxicity to resistant strain of houseflies with piperonyl butoxide (in words): at least as toxic as methoxychlor and considerably more toxic than DDT
[18]
  biodegradability (in words): more biodegradable than methoxychlor

## COc1ccc(C(c2ccc(OC)cc2)C(Cl)(Cl)Cl)cc1 [Methoxychlor, reference compound]
[2]
  fish toxicity (head is a drawing): 1
[3]
  SNAIDM alone (insecticidal activity; head is a drawing): 45.0
  SNAIDM with P.B. (insecticidal activity; head is a drawing): 3.5
[4]; resistant strain
  RSP alone (insecticidal activity; head is a drawing): 48
  RSP with P.B. (insecticidal activity; head is a drawing): 4.6
